This experiment is described as follows: Inhibition of HIV Replication: A recombinant NL-RLuc proviral clone was constructed in which a section of the nef gene from NL4-3 was replaced with the Renilla Luciferase gene. This virus is fully infectious and can undergo multiple cycles of replication in cell culture. In addition, the luciferous reporter provides a simple and easy method for quantitating the extent of virus growth and consequently, the antiviral activity of test compounds. The plasmid pNLRLuc contains the proviral NL-Rluc DNA cloned into pUC18 at the PvuII site. The NL-RLuc virus was prepared by transfection of 293T cells with the plasmid pNLRLuc. Transfections were performed using the LipofectAMINE PLUS kit from Invitrogen (Carlsbad, Calif.) according to the manufacturer and the virus generated was titered in MT-2 cells. For susceptibility analyses, the titrated virus was used to infect MT-2 cells in the presence of compound, and after 5 days of incubation, cells were processed and quantitated for virus growth by the amount of expressed luciferase. Assay media was RPMI 1640 supplemented with 10% heat inactivated fetal bovine serum (FBS), 100 units/ml penicillin G/100 units/ml streptomycin, 10 mM HEPES buffer pH 7.55 and 2 mM L-glutamine. The results from at least 2 experiments were used to calculate the EC50 values. Luciferase was quantitated using the Dual Luciferase kit from Promega (Madison, Wis.). Susceptibility of viruses to compounds was determined by incubation in the presence of serial dilutions of the compound. The 50% effective concentration (EC50) was calculated by using the exponential form of the median effect equation where (Fa)=1/[1+(ED50/drug conc.)m] (Johnson Va., Byington R T. Infectivity Assay. In Techniques in HIV Research. ed. Aldovini A, Walker B D. 71-76. New York: Stockton Press. 1990). In kind it is cell-based. Particulars: HEK-293T.
One may read the EC50 as the concentration giving half of the maximal effect. With `Cc1nc(C)c([C@H](OC(C)(C)C)C(=O)O)c(N2CCC(C)(C)CC2)c1-c1ccc2c(c1)CCN(c1nc3ccccc3c3ccccc13)C2`, the EC50 is 31 nM.
To `Cc1nc(C)c([C@H](OC(C)(C)C)C(=O)O)c(N2CCC(C)(C)CC2)c1-c1ccc2c(c1)CCN(c1ncnc3c1[nH]c1ccccc13)C2` belongs 24 nM; to `Cc1nc(C)c([C@H](OC(C)(C)C)C(=O)O)c(N2CCC(C)(C)CC2)c1-c1ccc2c(c1)CCN(c1ccc3ccc4cccnc4c3n1)C2`, 3 nM.
To `Cc1nc(C)c([C@H](OC(C)(C)C)C(=O)O)c(N2CCC(C)(C)CC2)c1-c1ccc2c(c1)CCN(c1ncnc3c1sc1ccccc13)C2` belongs 4 nM; to `Cc1ccc2c(c1)[nH]c1nc(N3CCc4cc(-c5c(C)nc(C)c([C@H](OC(C)(C)C)C(=O)O)c5N5CCC(C)(C)CC5)ccc4C3)nc(Cl)c12`, 5 nM; to `CCOc1cccc2oc3c(N4CCc5cc(-c6c(C)nc(C)c([C@H](OC(C)(C)C)C(=O)O)c6N6CCC(C)(C)CC6)ccc5C4)ncnc3c12`, 1 nM.
Take `Cc1nc(C)c([C@H](OC(C)(C)C)C(=O)O)c(N2CCC(C)(C)CC2)c1-c1ccc2c(c1)CCN(c1ncnc3c1oc1ccc(F)cc13)C2`: the EC50 was 2 nM.
The value for `Cc1nc(C)c([C@H](OC(C)(C)C)C(=O)O)c(N2CCC(C)(C)CC2)c1-c1ccc2c(c1)CCN(c1ncnc3c1oc1ncccc13)C2` was 1 nM; that for `Cc1nc(C)c([C@H](OC(C)(C)C)C(=O)O)c(N2CCC(C)(C)CC2)c1-c1ccc2c(c1)CCN(c1ncnc3[nH]c4ccccc4c13)C2` was 5 nM.
The value for `Cc1ccc2[nH]c3c(N4CCc5cc(-c6c(C)nc(C)c([C@H](OC(C)(C)C)C(=O)O)c6N6CCC(C)(C)CC6)ccc5C4)ncnc3c2c1` was 13 nM.
Turning to `Cc1nc(C)c([C@H](OC(C)(C)C)C(=O)O)c(N2CCC(C)(C)CC2)c1-c1ccc2c(c1)CCN(c1ncnc3c1oc1cccc(F)c13)C2`, the EC50 is 3 nM.
To `Cc1nc(C)c([C@H](OC(C)(C)C)C(=O)O)c(N2CCC(C)(C)CC2)c1-c1ccc2c(c1)CCN(c1ncnc3c1oc1ccccc13)C2` belongs 1 nM.
For `CCn1c2ccc(C)cc2c2ncnc(N3CCc4cc(-c5c(C)nc(C)c([C@H](OC(C)(C)C)C(=O)O)c5N5CCC(C)(C)CC5)ccc4C3)c21`, the EC50 was 45 nM.
To `Cc1nc(C)c([C@H](OC(C)(C)C)C(=O)O)c(N2CCC(C)(C)CC2)c1-c1ccc2c(c1)CCN(c1ncnc3sc4ccccc4c13)C2` belongs 5 nM.
